# Experimental data taken from PMC11979685, “Synthesis of Derivatives of the Antibiotic Albicidin: The N‐Terminal Fragment as Key to Control Potency and Resistance Mediated by the Binding Protein AlbA” (Chemistry (Weinheim an Der Bergstrasse, Germany), 2025).
# Like-named read-outs stand apart in the source and are kept apart here.
# Tests used:
# E. coli DSM 1116 = assay: Qualitative growth inhibition assay in presence of AlbAS; format: cell-based, Escherichia coli; details: for GIA: E. coli inhibition +AlbA: E. coli DSM 1116, 10 µM compound with equimolar AlbAS; for bioactivity in presence of AlbAS (in words): E. coli, equimolar purified AlbAS
# Description: Finally, we investigated if synthetic variations of building block A are able to evade the effects of the resistance protein AlbA. Therefore, we carried out a qualitative growth inhibition assay with derivatives 4–24 in presence of an equimolar amount of purified AlbAS. After incubation of the cultures overnight, the growth of the bacteria was evaluated. The ability of AlbAS to sufficiently sequester an albicidin derivative from the supernatant allowed E. coli cells to accumulate in a visible cell pellet. Second, we performed a quantitative transcription‐activation reporter assay[22] to assess transcriptional regulation by AlbAL. The promoter sequence pAlbA was inserted into a reporter vector that encodes the ilux luminescence cassette.[22] The luminescence signals elicited by ligand binding of synthetic variations to AlbAL was compared and normalized to the signal induced by 2nd Gen albicidin 2 and are hereby referred to as relative transcription activation (TA^%). The combination of both assays prompted us to categorize the experimental outcomes (Figure 4) in four groups:
# Figure 4 Characterization of AlbA resistance against derivatives 2, 4–24. GIA: Qualitative growth inhibition assay against E. coli DSM 1116. (−): Derivative unable to inhibit the growth of E. coli in presence of AlbAS. (+): Derivative inhibits growth of E. coli in presence of AlbAS. […] For details see SI Figure 9. Transcription activation (TA) assay: luminescence elicited by 2nd Gen albicidin 2 from the TA assay was normalized to 100 % and the luminescence signal of tested derivatives provided: relative luminescence [%]=luminescence [derivative]/luminescence [2]×100 %. Green bars indicate low relative luminescence (<40 %) and red bars indicate high relative luminescence (>50 %). Error bars show the standard deviations of triplicate measurements. TEXT PRINTED IN THE PICTURE: 2: E. coli inhibition +AlbA: − | 4: E. coli inhibition +AlbA: + | 9: E. coli inhibition +AlbA: + | 11: E. coli inhibition +AlbA: + | 12: E. coli inhibition +AlbA: + | 13: E. coli inhibition +AlbA: ~ | 14: E. coli inhibition +AlbA: − | 16: E. coli inhibition +AlbA: − | 17: E. coli inhibition +AlbA: − | 18: E. coli inhibition +AlbA: − | 19: E. coli inhibition +AlbA: − | 20: E. coli inhibition +AlbA: + | 21: E. coli inhibition +AlbA: − | 22: E. coli inhibition +AlbA: − | 23: E. coli inhibition +AlbA: − | 24: E. coli inhibition +AlbA: − […]
# 1.3 Resistance assessment against AlbA
# E. coli strain DSM 1116 was used for all susceptibility testing. E. coli BL21 Star (DE3) cells (Invitrogen) were used for protein expression. LB medium (Lysogeny broth: 10 g/L peptone, 5 g/L yeast extract, 5 g/L NaCl) was used as broth or in agar plates for all experiments. Incubation steps took place at 37°C and 180 rpm shaking if not stated otherwise. Throughout the study, 2nd Gen albicidin 2 was used as albicidin standard due to its better stability, availability and similar activity compared to natural albicidin in presence of resistance factors.[3,4]
# AlbA expression and purification
# N-terminally His-tagged AlbA was expressed using a pET28a vector as described previously.[5] In brief, E. coli BL21(DE3) cells were transformed with pET28-AlbA plasmid and grown in LB medium with kanamycin. LB broth supplemented with 50 µg/mL kanamycin was inoculated from over-night cultures and grown at 37°C until an OD600 of 0.6 was reached. After induction with 0.2 mM isopropyl β-D-1-thiogalactopyranoside (IPTG) the proteins were expressed at 18°C for 20 h. The cells were harvested by centrifugation (4,000 x G, 20 min), resuspended in lysis buffer (50 mM Tris, pH 8.0, 500 mM NaCl, 10% glycerol) and processed in a cell disruptor (Constant Systems Ltd) at 25 kPsi before centrifugation at 50,000 x G, at 4°C for 45 min. The lysate was incubated with Pure Cube Ni-NTA agarose (Cube Biotech, Germany) at 4°C for 20 min while shaking. The slurry was transferred to empty gravity-flow […]
# [1] = system: Mycobacterium phlei DSM 750; assay: MIC determination (broth microdilution); format: cell-based
# Description: After completing the syntheses, the antibacterial activity of A‐variations 4–24 was assessed by determination of MIC values against a basic set of gram‐negative and gram‐positive bacteria (Table 1). The monocyclic derivatives 4–8 featuring a cyano‐, trifluoromethyl‐, methoxy‐ and fluoro‐ substituent in para‐position were very active against the gram–negative E. coli and S. typhimurium strains with MIC values in the same range as 3rd Gen albicidin 3 or ciprofloxacin which is the gold standard for gyrase inhibitors. […] These findings are in agreement with previous studies showing good activities for cyano, trifluoromethyl, methoxy and fluoro substituents in the para‐position of different aromatic rings in the building block A.[12, 13] The activity of the monocyclic derivatives 4–8 against the gram‐positive strains B. subtilis and M. luteus were similar but slightly less pronounced compared to the lead structure 3.
# 1.1 Determination of Minimal Inhibitory Concentrations (MIC)
# Minimal inhibitory concentration (MIC) against selected bacterial strains values were determined according to the ninth edition of the Approved Standard M07-A9.[1] 20 μL of cryo stocks of bacterial strains were suspended in 20 mL LB medium (Lysogeny broth: 10 g/L peptone, 5 g/L yeast extract, 5 g/L NaCl). Following incubation overnight at 37°C, 200 rpm, the test inoculum was adjusted by 0.5 McFarland Standard in cation adjusted Mueller-Hinton broth (BBLTM Mueller-Hinton Broth II, Becton, Dickinson and Company, New Jersey, USA) to approximately 1x10^6 CFU mL-1. 95 μL of the bacterial inoculum were applied per well of a 96-well plate. Albicidin and albicidin derivatives 3−24 were dissolved in DMSO (100%) to an initial concentration of 2560 μg/mL and serially diluted in DMSO (100%). Initial solution and serial dilutions of Ciprofloxacin were prepared in 0.1 N HCL, respectively. 5 μL of each antibiotic dilution were added to the microdilution tray to reach albicidin concentrations of 128 μg/mL to 0.016 μg/mL per well. One row of each well plate served as a growth control without antibiotic substances and another row of the microdilution tray served as sterility control (only MHB II - media). The antimicrobial effect of the solvent (DMSO) was tested by adding 5 μL DMSO to several wells. Purity check and cell titer control were performed according to International S tandard M07-A9 on Mueller-Hinton II Agar (Mueller Hinton II Broth, 15 g/L agar-agar). Both microdilution trays and agar plates were incubated at 30−37°C for 16 h and subsequently analyzed for growth inhibition by naked eye. The following primary panel of microorganisms were purchased from German Collection of Microorganisms and Cell Cultures (DSMZ):
# Escherichia coli DSM 1116
# Micrococcus luteus DSM 1790
# Mycobacterium phlei DSM 750
# Salmonella typhimurium TA100 was kindly provided by Prof. Dr. Vera Meyer (Technische Universität Berlin). […]
# was purchased as part of the single gene knockout library of E. coli K12 BW25113 (Keio collection) from Horizon Discovery group plc (Cambridge, UK).
# [2] = Mycolicibacterium phlei, DSM750; read-out: MIC M. phlei
Structure (SMILES),GIA: E. coli inhibition +AlbA (E. coli DSM 1116),bioactivity in presence of AlbAS (in words) (E. coli DSM 1116),"MIC [1, 2] [µg/mL]","MIC ([1]; Mycolicibacterium phlei, DSM750, read-out: MIC M. phlei) [µg/mL]"
COc1c(NC(=O)c2ccc(NC(=O)c3ccc(NC(=O)[C@H](Cc4c[nH]nn4)NC(=O)c4ccc(NC(=O)c5cc(=O)c6cc(F)ccc6o5)cc4)cn3)c(OC)c2O)ccc(C(=O)O)c1O [compound 20],+,highly bioactive,2,
COc1c(NC(=O)c2ccc(NC(=O)c3ccc(NC(=O)[C@H](Cc4c[nH]nn4)NC(=O)c4ccc(NC(=O)c5ccc6ccccc6n5)cc4)cn3)c(OC)c2O)ccc(C(=O)O)c1O [compound 11],+,highly bioactive,0.5,
COc1c(NC(=O)c2ccc(NC(=O)c3ccc(NC(=O)[C@H](Cc4c[nH]nn4)NC(=O)c4ccc(NC(=O)c5ccc6nc(C)ccc6c5)cc4)cn3)c(OC)c2O)ccc(C(=O)O)c1O [compound 16],−,deactivated,,
COc1c(NC(=O)c2ccc(NC(=O)c3ccc(NC(=O)[C@H](Cc4c[nH]nn4)NC(=O)c4ccc(NC(=O)c5ccc6ncsc6c5)cc4)cn3)c(OC)c2O)ccc(C(=O)O)c1O [compound 22],−,deactivated,2,
COc1c(NC(=O)c2ccc(NC(=O)c3ccc(NC(=O)[C@H](Cc4c[nH]nn4)NC(=O)c4ccc(NC(=O)c5ccc(C#N)cc5)cc4)cn3)c(OC)c2O)ccc(C(=O)O)c1O [compound 4],+,has bioactivity,4,
COc1c(NC(=O)c2ccc(NC(=O)c3ccc(NC(=O)[C@H](Cc4c[nH]nn4)NC(=O)c4ccc(NC(=O)c5ccc6nc[nH]c6c5)cc4)cn3)c(OC)c2O)ccc(C(=O)O)c1O [compound 23],−,deactivated,8,
COc1c(NC(=O)c2ccc(NC(=O)c3ccc(NC(=O)[C@H](Cc4c[nH]nn4)NC(=O)c4ccc(NC(=O)c5ccc6nn[nH]c6c5)cc4)cn3)c(OC)c2O)ccc(C(=O)O)c1O [compound 24],−,deactivated,8,
COc1c(NC(=O)c2ccc(NC(=O)c3ccc(NC(=O)[C@H](Cc4c[nH]nn4)NC(=O)c4ccc(NC(=O)c5c[nH]c6ccccc6c5=O)cc4)cn3)c(OC)c2O)ccc(C(=O)O)c1O [compound 17],−,deactivated,8,
COc1c(NC(=O)c2ccc(NC(=O)c3ccc(NC(=O)[C@H](Cc4c[nH]nn4)NC(=O)c4ccc(NC(=O)c5cc6ccccc6cn5)cc4)cn3)c(OC)c2O)ccc(C(=O)O)c1O [compound 12],+,highly bioactive,,1
COc1c(NC(=O)c2ccc(NC(=O)c3ccc(NC(=O)[C@H](Cc4c[nH]nn4)NC(=O)c4ccc(NC(=O)[C@@H](C)Oc5ccc(O)cc5)cc4)cn3)c(OC)c2O)ccc(C(=O)O)c1O [compound 9],+,has bioactivity,,
COc1c(NC(=O)c2ccc(NC(=O)c3ccc(NC(=O)[C@H](Cc4c[nH]nn4)NC(=O)c4ccc(NC(=O)c5ccc6ncccc6c5)cc4)cn3)c(OC)c2O)ccc(C(=O)O)c1O [compound 14],−,deactivated,4,
COc1c(NC(=O)c2ccc(NC(=O)c3ccc(NC(=O)[C@H](Cc4c[nH]nn4)NC(=O)c4ccc(NC(=O)c5cnc6ccccc6c5)cc4)cn3)c(OC)c2O)ccc(C(=O)O)c1O [compound 13],,has bioactivity,1,
COc1c(NC(=O)c2ccc(NC(=O)c3ccc(NC(=O)[C@H](Cc4c[nH]nn4)NC(=O)c4ccc(NC(=O)c5cc6cc(O)ccc6[nH]5)cc4)cn3)c(OC)c2O)ccc(C(=O)O)c1O [compound 21],−,deactivated,4,
CCn1cc(C(=O)Nc2ccc(C(=O)N[C@@H](Cc3c[nH]nn3)C(=O)Nc3ccc(C(=O)Nc4ccc(C(=O)Nc5ccc(C(=O)O)c(O)c5OC)c(O)c4OC)nc3)cc2)c(=O)c2ccc(C)nc21 [compound 18],−,deactivated,≥ 8,
CCn1cc(C(=O)Nc2ccc(C(=O)N[C@@H](Cc3c[nH]nn3)C(=O)Nc3ccc(C(=O)Nc4ccc(C(=O)Nc5ccc(C(=O)O)c(O)c5OC)c(O)c4OC)nc3)cc2)c(=O)c2cc3c(cc21)OCO3 [compound 19],−,deactivated,0.25,
